Assay results as given in patent US8329755B2, “Methods for treating retroviral infections” (Roche Palo Alto LLC, priority 2004, dated 2012).

SMILES	melting point
CCc1ccc(CC(=O)Nc2ccccc2Cl)cc1Oc1cc(Cl)cc(Br)c1Cl [Compound I-37, 2-[3-(3-Bromo-2,5-dichloro-phenoxy)-4-ethyl-phenyl]-N-(2-chloro-phenyl)-acetamide]	146.5 to 147.6 °C
CCc1ccc(CC(=O)Nc2ccccc2Cl)cc1Oc1cc(Br)cc(Br)c1Cl [Compound I-38, N-(2-Chloro-phenyl)-2-[3-(3,5-dibromo-2-chloro-phenoxy)-4-ethyl-phenyl]-acetamide]	155.5 to 155.8 °C
CCc1ccc(CC(=O)Nc2ccc(S(N)(=O)=O)cc2)cc1Oc1cc(Br)cc(F)c1Cl [Compound I-39, 2-[3-(5-Bromo-2-chloro-3-fluoro-phenoxy)-4-ethyl-phenyl]-N-(4-sulfamoyl-phenyl)-acetamide]	209.9 to 211.1 °C
CCc1ccc(CC(=O)Nc2ccc(S(N)(=O)=O)cc2C)cc1Oc1cc(Br)cc(F)c1Cl [Compound I-40, 2-[3-(5-Bromo-2-chloro-3-fluoro-phenoxy)-4-ethyl-phenyl]-N-(2-methyl-4-sulfamoyl-phenyl)-acetamide]	207 to 209.9 °C
CCc1ccc(CC(=O)Nc2ccccc2Cl)cc1Oc1cc(Br)cc(F)c1Cl [Compound I-41, 2-[3-(5-Bromo-2-chloro-3-fluoro-phenoxy)-4-ethyl-phenyl]-N-(2-chloro-phenyl)-acetamide]	146.6 to 147.2 °C
Cc1cc(S(N)(=O)=O)ccc1NC(=O)Cc1ccc(C)c(Oc2cc(C#N)cc(C#N)c2)c1 [Compound I-43, 2-[3-(3,5-Dicyano-phenoxy)-4-methyl-phenyl]-N-(2-methyl-4-sulfamoyl-phenyl)-acetamide]	228.6 to 230.9 °C
Cc1ccc(CC(=O)Nc2ccc(S(N)(=O)=O)cc2Cl)cc1Oc1cc(C#N)cc(C#N)c1 [Compound I-44, N-(2-Chloro-4-sulfamoyl-phenyl)-2-[3-(3,5-dicyano-phenoxy)-4-methyl-phenyl]-acetamide]	209.9 to 211.5 °C
CCc1ccc(CC(=O)Nc2ccc(S(N)(=O)=O)cc2)cc1Oc1cc(Cl)cc(C#N)c1 [Compound I-45, 2-[3-(3-Chloro-5-cyano-phenoxy)-4-ethyl-phenyl]-N-(4-sulfamoyl-phenyl)-acetamide]	170.7 to 172.4 °C
CCc1ccc(CC(=O)Nc2ccc(S(N)(=O)=O)cc2C)cc1Oc1cc(Cl)cc(C#N)c1 [Compound I-46, 2-[3-(3-Chloro-5-cyano-phenoxy)-4-ethyl-phenyl]-N-(2-methyl-4-sulfamoyl-phenyl)-acetamide]	189.1 to 189.4 °C
CCc1ccc(CC(=O)Nc2ccc(S(N)(=O)=O)cc2Cl)cc1Oc1cc(Cl)cc(C#N)c1 [Compound I-47, 2-[3-(3-Chloro-5-cyano-phenoxy)-4-ethyl-phenyl]-N-(2-chloro-4-sulfamoyl-phenyl)-acetamide]	181.1 to 183.9 °C
CCc1ccc(CC(=O)Nc2ccc(S(=O)(=O)NC)cc2)cc1Oc1cc(Cl)cc(C#N)c1 [Compound I-48, 2-[3-(3-Chloro-5-cyano-phenoxy)-4-ethyl-phenyl]-N-(4-methylsulfamoyl-phenyl)-acetamide]	149.1 to 151.3 °C
CCc1ccc(CC(=O)Nc2ccc(S(N)(=O)=O)cc2)cc1Oc1cc(C#N)cc(F)c1Cl [Compound I-49, 2-[3-(2-Chloro-5-cyano-3-fluoro-phenoxy)-4-ethyl-phenyl]-N-(4-sulfamoyl-phenyl)-acetamide]	167.9 to 170.5 °C
CCc1ccc(CC(=O)Nc2ccc(S(N)(=O)=O)cc2C)cc1Oc1cc(C#N)cc(F)c1Cl [Compound I-50, 2-[3-(2-Chloro-5-cyano-3-fluoro-phenoxy)-4-ethyl-phenyl]-N-(2-methyl-4-sulfamoyl-phenyl)-acetamide]	217.6 to 220.4 °C
CCc1ccc(CC(=O)Nc2ccc(S(N)(=O)=O)cc2)cc1Oc1cc(C#N)cc(C#N)c1Cl [Compound I-52, 2-[3-(2-Chloro-3,5-dicyano-phenoxy)-4-ethyl-phenyl]-N-(4-sulfamoyl-phenyl)-acetamide]	119.7 to 123.3 °C
CCc1ccc(CC(=O)Nc2ccc(S(N)(=O)=O)cc2C)cc1Oc1cc(C#N)cc(C#N)c1Cl [Compound I-53, 2-[3-(2-Chloro-3,5-dicyano-phenoxy)-4-ethyl-phenyl]-N-(2-methyl-4-sulfamoyl-phenyl)-acetamide]	199.4 to 205.3 °C
CCc1ccc(CC(=O)Nc2ccc(S(N)(=O)=O)cc2Cl)cc1Oc1cc(C#N)cc(C#N)c1Cl [Compound I-54, 2-[3-(2-Chloro-3,5-dicyano-phenoxy)-4-ethyl-phenyl]-N-(2-chloro-4-sulfamoyl-phenyl)-acetamide]	180.3 to 183.1 °C
Cc1cc(C#N)cc(C)c1Oc1cc(CC(=O)Nc2ccc(S(N)(=O)=O)cc2)ccc1Cl [Compound I-55, 2-[4-Chloro-3-(4-cyano-2,6-dimethyl-phenoxy)-phenyl]-N-(4-sulfamoyl-phenyl)-acetamide]	227.3 to 231.4 °C
Cc1cc(S(N)(=O)=O)ccc1NC(=O)Cc1ccc(Cl)c(Oc2c(C)cc(C#N)cc2C)c1 [Compound I-56, 2-[4-Chloro-3-(4-cyano-2,6-dimethyl-phenoxy)-phenyl]-N-(2-methyl-4-sulfamoyl-phenyl)-acetamide]	232.1 to 234.6 °C

SMILES	melting point
COc1ccc(CC(=O)Nc2ccc(S(N)(=O)=O)cc2)cc1Oc1cc(Cl)cc(C#N)c1 [Compound I-57, 2-[3-(3-Chloro-5-cyano-phenoxy)-4-methoxy-phenyl]-N-(4-sulfamoyl-phenyl)-acetamide]	218.3 to 221.4 °C
CCc1ccc(CC(=O)Nc2ccccc2Cl)cc1Oc1cc(C#N)cc(F)c1Cl [Compound I-59, 2-[3-(2-Chloro-5-cyano-3-fluoro-phenoxy)-4-ethyl-phenyl]-N-(2-chloro-phenyl)-acetamide]	142.1 to 142.8 °C
CCc1ccc(CC(=O)Nc2ccccc2Cl)cc1Oc1cc(C#N)cc(C#N)c1Cl [Compound I-60, 2-[3-(2-Chloro-3,5-dicyano-phenoxy)-4-ethyl-phenyl]-N-(2-chloro-phenyl)-acetamide]	110 to 111.5 °C
COc1ccc(CC(=O)Nc2ccccc2Cl)cc1Oc1cc(Cl)cc(C#N)c1 [Compound I-61, 2-[3-(3-Chloro-5-cyano-phenoxy)-4-methoxy-phenyl]-N-(2-chloro-phenyl)-acetamide]	175.7 to 178.3 °C
COc1ccc(CC(=O)Nc2ccccc2Cl)cc1Oc1cc(C#N)ccc1Cl [Compound I-62, 2-[3-(2-Chloro-5-cyano-phenoxy)-4-methoxy-phenyl]-N-(2-chloro-phenyl)-acetamide]	194 to 197.8 °C
COc1ccc(CC(=O)Nc2ccc(S(N)(=O)=O)cc2Cl)cc1Oc1cc(Cl)cc(C#N)c1 [Compound I-64, 2-[3-(3-Chloro-5-cyano-phenoxy)-4-methoxy-phenyl]-N-(2-chloro-4-sulfamoyl-phenyl)-acetamide]	186.3 to 189.7 °C
COc1ccc(CC(=O)Nc2ccc(S(N)(=O)=O)cc2)cc1Oc1cc(C#N)ccc1Cl [Compound I-65, 2-[3-(2-Chloro-5-cyano-phenoxy)-4-methoxy-phenyl]-N-(4-sulfamoyl-phenyl)-acetamide]	252.3 to 254.3 °C
COc1ccc(CC(=O)Nc2ccc(S(N)(=O)=O)cc2C)cc1Oc1cc(C#N)ccc1Cl [Compound I-66, 2-[3-(2-Chloro-5-cyano-phenoxy)-4-methoxy-phenyl]-N-(2-methyl-4-sulfamoyl-phenyl)-acetamide]	232.9 to 236.9 °C
COc1ccc(CC(=O)Nc2ccc(S(N)(=O)=O)cc2Cl)cc1Oc1cc(C#N)ccc1Cl [Compound I-67, 2-[3-(2-Chloro-5-cyano-phenoxy)-4-methoxy-phenyl]-N-(2-chloro-4-sulfamoyl-phenyl)-acetamide]	214.6 to 216.4 °C
Cc1cc(C#N)cc(C)c1Oc1cc(CC(=O)Nc2ccccc2Cl)ccc1Cl [Compound I-68, 2-[4-Chloro-3-(4-cyano-2,6-dimethyl-phenoxy)-phenyl]-N-(2-chloro-phenyl)-acetamide]	183.9 to 185.1 °C
COc1ccc(CC(=O)Nc2ccc(S(N)(=O)=O)cc2C)cc1Oc1cc(Cl)cc(C#N)c1 [Compound I-73, 2-[3-(3-Chloro-5-cyano-phenoxy)-4-methoxy-phenyl]-N-(2-methyl-4-sulfamoyl-phenyl)-acetamide]	222.3 to 224.3 °C
Cc1cc(S(N)(=O)=O)ccc1NC(=O)Cc1ccc(C)c(Oc2cc(Cl)cc(C#N)c2)c1F [Compound I-74, 2-[3-(3-Chloro-5-cyano-phenoxy)-2-fluoro-4-methyl-phenyl]-N-(2-methyl-4-sulfamoyl-phenyl)-acetamide]	230 to 232.2 °C
Cc1ccc(CC(=O)Nc2ccc(S(N)(=O)=O)cc2Cl)c(F)c1Oc1cc(Cl)cc(C#N)c1 [Compound I-83, 2-[3-(3-Chloro-5-cyano-phenoxy)-2-fluoro-4-methyl-phenyl]-N-(2-chloro-4-sulfamoyl-phenyl)-acetamide]	228.9 to 230.6 °C
Cc1ccc(CC(=O)Nc2ccc(S(N)(=O)=O)cc2Cl)c(F)c1Oc1cc(C#N)cc(C(F)F)c1 [Compound I-84, N-(2-Chloro-4-sulfamoyl-phenyl)-2-[3-(3-cyano-5-difluoromethyl-phenoxy)-2-fluoro-4-methyl-phenyl]-acetamide]	218 to 218.7 °C
Cc1cc(S(N)(=O)=O)ccc1NC(=O)Cc1ccc(C)c(Oc2cc(C#N)cc(C(F)F)c2)c1F [Compound I-85, 2-[3-(3-Cyano-5-difluoromethyl-phenoxy)-2-fluoro-4-methyl-phenyl]-N-(2-methyl-4-sulfamoyl-phenyl)-acetamide]	218 to 220.4 °C
Cc1ccc(CC(=O)Nc2ccccc2Cl)c(F)c1Oc1cc(C#N)cc(C(F)F)c1 [Compound I-86, N-(2-Chloro-phenyl)-2-[3-(3-cyano-5-difluoromethyl-phenoxy)-2-fluoro-4-methyl-phenyl]-acetamide]	163.3 to 164.4 °C
N#Cc1cc(Oc2cc(CC(=O)Nc3ccc(S(N)(=O)=O)cc3)ccc2Cl)cc(C(F)(F)F)c1 [Compound I-88, 2-[4-Chloro-3-(3-cyano-5-trifluoromethyl-phenoxy)-phenyl]-N-(4-sulfamoyl-phenyl)-acetamide]	219 to 221.4 °C
